{"source": "patent US9808428B2", "about": "“Compositions and methods for the delivery of therapeutics” (priority 2014, dated 2017)", "system": "HIV-1ADA", "assay": "Antiretroviral activity by reverse transcriptase (RT) activity in HIV-1 infected MDM", "assay_type": "cell-based", "conditions": "30-100 μM; MDM challenged with HIV-1ADA >15 days after 8 hours of treatment", "method": "The antiretroviral activity was determined by reverse transcriptase (RT) activity and HIV-1 p24 antigen expression in HIV-1 infected MDM. […] Overall, development of long acting targeted MVC, optionally together with reverse transcriptase, protease and/or integrase inhibitors leads to improved pharmacokinetics of cART and promote improved drug adherence and access.", "data": [{"smiles": "Cc1nnc(C(C)C)n1C1C[C@H]2CC[C@@H](C1)N2CC[C@H](NC(=O)C1CCC(F)(F)CC1)c1ccccc1", "note": "(stereo in doubt) [free MVC, maraviroc]", "values": [{"measurement": "RT activity reductions compared to untreated infected cells", "value": 22, "unit": "%"}]}]}
